# Measured values published in PMC10465243, “Identification of sucrose synthase from Micractinium conductrix to favor biocatalytic glycosylation” (Frontiers in Microbiology, 2023).
# Molecular target: T1, UGT76G1 (Stevia rebaudiana, UniProt Q6VAB4, S195Q)
# T1 construct: codon-optimised gene in pRSFDuet-1 (NdeI/XhoI), co-expressed with a SuSy in E. coli BL21(DE3), crude extract
# Assay: HPLC of RebD and RebM, one-pot coupled with McSuSy S31D, E. coli crude extract
# Format: biochemical
# Conditions: sucrose, UDP recycling, potassium phosphate pH 7.2, 40°C; RebD formed in situ as intermediate
# T1 sequence (Q6VAB4 whole entry S195Q): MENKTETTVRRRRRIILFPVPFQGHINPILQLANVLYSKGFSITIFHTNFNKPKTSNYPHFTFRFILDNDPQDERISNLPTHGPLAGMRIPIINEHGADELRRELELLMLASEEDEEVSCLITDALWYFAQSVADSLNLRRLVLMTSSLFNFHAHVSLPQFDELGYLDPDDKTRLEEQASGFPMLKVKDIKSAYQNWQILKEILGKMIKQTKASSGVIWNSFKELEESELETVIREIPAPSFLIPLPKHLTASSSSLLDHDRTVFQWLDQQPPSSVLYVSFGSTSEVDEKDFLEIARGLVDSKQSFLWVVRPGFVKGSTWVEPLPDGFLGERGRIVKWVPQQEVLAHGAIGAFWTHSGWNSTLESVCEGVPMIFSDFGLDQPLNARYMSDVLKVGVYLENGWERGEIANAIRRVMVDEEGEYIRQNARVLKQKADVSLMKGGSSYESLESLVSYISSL
smiles,measurement,value
C=C1C[C@@]23CC[C@H]4[C@@](C)(CCC[C@@]4(C)C(=O)O[C@@H]4O[C@H](CO)[C@@H](O)[C@H](O)[C@H]4O[C@@H]4O[C@H](CO)[C@@H](O)[C@H](O)[C@H]4O)[C@@H]2CC[C@]1(O[C@@H]1O[C@H](CO)[C@@H](O)[C@H](O[C@@H]2O[C@H](CO)[C@@H](O)[C@H](O)[C@H]2O)[C@H]1O[C@@H]1O[C@H](CO)[C@@H](O)[C@H](O)[C@H]1O)C3 [RebD],"HPLC of RebD and RebM, one-pot coupled with McSuSy S31D, E. coli crude extract",second glycosylation reaction that RebD was converted into RebM by UGT76G1_S195Q
